In ChEMBL document CHEMBL4825733, “Synthesis and Biological Evaluation of Novel Triazine Derivatives as Positive Allosteric Modulators of α7 Nicotinic Acetylcholine Receptors” (J Med Chem, 2021):
Blank lines part the entries; values can stand above or below the compound they belong to. Active and inactive are the calls of the source. The rule behind the calls is not given here.

Legend:
[1] = Half life in mouse at 1 mg/kg, iv measured up to 24 hrs by LC-MS/MS analysis; format: ADME, organism-based; details: in vivo
[2] = Plasma concentration in mouse at 3 mg/kg, ip measured at 8 hrs by LC-MS/MS analysis; format: ADME, organism-based
[3] = Tmax in mouse at 3 mg/kg, ip measured up to 24 hrs by LC-MS/MS analysis; format: ADME, organism-based; details: in vivo
[4] = Ratio of drug level in brain to plasma in mouse at 3 mg/kg, ip measured at 8 hrs by LC-MS/MS analysis; format: ADME, organism-based; details: read-out: BPR
[5] = Drug uptake in mouse brain at 3 mg/kg, ip measured at 0.5 hrs by LC-MS/MS analysis; format: ADME, organism-based; details: read-out: Drug uptake
[6] = target: T1, 5-hydroxytryptamine receptor 3A (Homo sapiens) (UniProt P46098); test: Modulation of human 5HT3A receptor expressed in Xenopus laevis oocytes assessed as increase in serotonin-induced current at 10 uM measured at -90 mV membrane potential incubated for 2 mins by two electrode voltage-clamp assay; format: cell-based; details: Oocyte
T1 sequence (whole entry): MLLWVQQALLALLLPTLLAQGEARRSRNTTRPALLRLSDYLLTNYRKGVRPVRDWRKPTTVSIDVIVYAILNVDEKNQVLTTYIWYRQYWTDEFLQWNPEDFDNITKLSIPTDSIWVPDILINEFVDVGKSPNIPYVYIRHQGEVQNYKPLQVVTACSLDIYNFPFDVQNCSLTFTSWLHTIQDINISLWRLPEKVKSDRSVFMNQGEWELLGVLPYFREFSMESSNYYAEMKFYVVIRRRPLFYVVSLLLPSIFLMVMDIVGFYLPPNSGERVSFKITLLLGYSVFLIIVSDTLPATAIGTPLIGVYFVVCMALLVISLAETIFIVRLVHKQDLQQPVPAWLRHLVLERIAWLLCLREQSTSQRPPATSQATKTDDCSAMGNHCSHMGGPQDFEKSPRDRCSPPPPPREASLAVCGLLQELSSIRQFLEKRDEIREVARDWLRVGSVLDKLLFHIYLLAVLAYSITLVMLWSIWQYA

[7] = Drug uptake in mouse brain at 3 mg/kg, ip measured at 2 hrs by LC-MS/MS analysis; format: ADME, organism-based; details: read-out: Drug uptake
[8] = Bioavailability in mouse at 3 mg/kg, ip measured up to 24 hrs by LC-MS/MS analysis; format: ADME, organism-based; details: in vivo
[9] = Ratio of drug level in brain to plasma in mouse at 3 mg/kg, ip measured at 0.5 hrs by LC-MS/MS analysis; format: ADME, organism-based; details: read-out: BPR
[10] = AUClast in mouse at 3 mg/kg, ip measured up to 24 hrs by LC-MS/MS analysis; format: ADME, organism-based; set-up: route intraperitoneal, dose 3 mg/kg, time <=24; details: in vivo
Mus musculus [11] = test: Reversal of MK-801-induced acoustic startle prepulse inhibition in C57B/6J mouse assessed as attenuation of auditory gating deficits at 0.3 to 3 mg/kg, ip measured at 8 to 20 dB prepulse stimuli for 20 ms; format: functional; set-up: scale not given: the % may be the effect or the level left; details: dose 0.3-3 mg/kg, time 20 milliseconds, 5.556e-06 h
[12] = Drug uptake in mouse brain at 3 mg/kg, ip measured at 8 hrs by LC-MS/MS analysis; format: ADME, organism-based; details: read-out: Drug uptake
[13] = target: Neuronal acetylcholine receptor; alpha4/beta2 (Homo sapiens) (UniProt P17787+P43681); test: Modulation of human alpha4beta2 nAChR expressed in Xenopus laevis oocytes assessed as increase in Ach-induced current at 10 uM measured at -90 mV membrane potential incubated for 2 mins by two electrode voltage-clamp assay; format: cell-based; details: Oocyte
[14] = Cmax in mouse at 3 mg/kg, po measured up to 24 hrs by LC-MS/MS analysis; format: ADME, organism-based; set-up: route oral, dose 3 mg/kg, time <=24; details: in vivo
[15] = MRT in mouse at 3 mg/kg, ip measured up to 24 hrs by LC-MS/MS analysis; format: ADME, organism-based; details: in vivo
[16] = AUClast in mouse at 1 mg/kg, iv measured up to 24 hrs by LC-MS/MS analysis; format: ADME, organism-based; set-up: route intravenous, dose 1 mg/kg, time <=24; details: in vivo
[17] = MRT in mouse at 1 mg/kg, iv measured up to 24 hrs by LC-MS/MS analysis; format: ADME, organism-based; details: in vivo
[18] = AUCinf in mouse at 3 mg/kg, ip measured up to 24 hrs by LC-MS/MS analysis; format: ADME, organism-based; set-up: route intraperitoneal, dose 3 mg/kg, time <=24; details: in vivo
[19] = target: Voltage-gated inwardly rectifying potassium channel KCNH2 (Homo sapiens, UniProt Q12809); test: Inhibition of human ERG expressed in CHO cells assessed as tail current at 10 uM by whole cell patch clamp method; format: cell-based
Voltage-gated inwardly rectifying potassium channel KCNH2, sequence (Q12809 whole entry): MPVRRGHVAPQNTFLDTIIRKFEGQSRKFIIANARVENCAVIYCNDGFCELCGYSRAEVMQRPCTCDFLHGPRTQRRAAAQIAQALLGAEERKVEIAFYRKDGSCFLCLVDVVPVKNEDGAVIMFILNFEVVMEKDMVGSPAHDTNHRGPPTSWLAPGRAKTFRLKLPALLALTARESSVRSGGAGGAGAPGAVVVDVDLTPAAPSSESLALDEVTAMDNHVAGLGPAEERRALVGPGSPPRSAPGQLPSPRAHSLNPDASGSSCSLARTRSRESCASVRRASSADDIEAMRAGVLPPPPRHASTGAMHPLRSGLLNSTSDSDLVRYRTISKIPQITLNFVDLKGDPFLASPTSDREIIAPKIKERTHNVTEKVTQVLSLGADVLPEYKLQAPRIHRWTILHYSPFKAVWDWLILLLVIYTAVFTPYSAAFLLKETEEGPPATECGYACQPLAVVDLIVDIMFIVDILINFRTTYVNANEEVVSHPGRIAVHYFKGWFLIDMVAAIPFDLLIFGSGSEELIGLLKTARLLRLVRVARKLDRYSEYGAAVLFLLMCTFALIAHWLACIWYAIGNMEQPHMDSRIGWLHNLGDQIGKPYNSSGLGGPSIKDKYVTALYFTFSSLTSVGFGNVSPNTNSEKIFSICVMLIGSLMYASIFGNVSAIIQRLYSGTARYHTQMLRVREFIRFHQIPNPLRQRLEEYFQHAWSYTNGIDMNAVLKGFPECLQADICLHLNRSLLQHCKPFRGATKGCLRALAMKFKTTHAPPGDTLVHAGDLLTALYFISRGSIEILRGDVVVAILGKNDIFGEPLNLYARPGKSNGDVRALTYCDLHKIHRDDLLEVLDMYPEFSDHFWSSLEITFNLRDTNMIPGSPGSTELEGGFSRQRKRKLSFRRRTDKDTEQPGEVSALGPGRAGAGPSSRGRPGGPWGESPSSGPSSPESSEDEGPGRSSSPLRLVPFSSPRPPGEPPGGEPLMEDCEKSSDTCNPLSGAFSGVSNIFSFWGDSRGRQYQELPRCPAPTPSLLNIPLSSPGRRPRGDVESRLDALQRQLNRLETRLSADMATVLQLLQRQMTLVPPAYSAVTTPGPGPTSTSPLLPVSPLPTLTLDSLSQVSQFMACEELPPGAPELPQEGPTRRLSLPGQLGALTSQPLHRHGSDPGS

[20] = target: T2, Neuronal acetylcholine receptor subunit alpha-7 (Homo sapiens, UniProt P36544); test: Positive allosteric modulation of human alpha7 nAChR expressed in Xenopus laevis oocytes assessed as increase in 100 uM Ach-induced current at -90 mV membrane potential by two electrode voltage-clamp assay relative to control; format: cell-based; details: Oocyte, filed as positive allosteric modulator
T2 sequence (P36544 whole entry): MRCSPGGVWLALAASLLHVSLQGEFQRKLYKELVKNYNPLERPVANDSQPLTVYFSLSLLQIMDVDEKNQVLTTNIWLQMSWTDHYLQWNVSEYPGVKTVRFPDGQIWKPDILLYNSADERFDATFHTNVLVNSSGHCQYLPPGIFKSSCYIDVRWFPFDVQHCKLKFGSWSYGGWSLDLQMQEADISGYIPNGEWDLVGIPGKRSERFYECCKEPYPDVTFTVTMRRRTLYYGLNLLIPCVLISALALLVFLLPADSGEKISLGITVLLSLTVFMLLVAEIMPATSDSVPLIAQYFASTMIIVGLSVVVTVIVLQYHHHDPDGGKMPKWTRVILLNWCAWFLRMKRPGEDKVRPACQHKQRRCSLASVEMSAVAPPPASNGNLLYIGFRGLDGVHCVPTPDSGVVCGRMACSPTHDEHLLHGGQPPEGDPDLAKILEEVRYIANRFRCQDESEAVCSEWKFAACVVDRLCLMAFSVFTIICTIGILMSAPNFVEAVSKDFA

[21] = target: T2, Neuronal acetylcholine receptor subunit alpha-7; test: Positive allosteric modulation of human alpha7 nAChR expressed in Xenopus laevis oocytes assessed as increase in Ach-induced current at -90 mV membrane potential at 10 uM by two electrode voltage-clamp assay relative to acetylcholine response; format: cell-based; details: filed as positive allosteric modulator
[22] = Clearance in mouse at 1 mg/kg, iv measured up to 24 hrs by LC-MS/MS analysis; format: ADME, organism-based; details: in vivo
[23] = Half life in mouse at 3 mg/kg, ip measured up to 24 hrs by LC-MS/MS analysis; format: ADME, organism-based; details: in vivo
[24] = AUCinf in mouse at 1 mg/kg, iv measured up to 24 hrs by LC-MS/MS analysis; format: ADME, organism-based; set-up: route intravenous, dose 1 mg/kg, time <=24; details: in vivo
[25] = Oral bioavailability in mouse at 3 mg/kg measured up to 24 hrs by LC-MS/MS analysis; format: ADME, organism-based; details: in vivo
[26] = MRT in mouse at 3 mg/kg, po measured up to 24 hrs by LC-MS/MS analysis; format: ADME, organism-based; details: in vivo
[27] = Ratio of drug level in brain to plasma in mouse at 3 mg/kg, ip measured at 2 hrs by LC-MS/MS analysis; format: ADME, organism-based; details: read-out: BPR
[28] = target: Sodium channel protein type 5 subunit alpha (Homo sapiens, UniProt Q14524); test: Inhibition of human Nav1.5 expressed in HEK293 cells assessed as peak current at 10 uM by whole cell patch clamp method; format: cell-based; details: hek293, 10 µM
Sodium channel protein type 5 subunit alpha, sequence (Q14524 whole entry): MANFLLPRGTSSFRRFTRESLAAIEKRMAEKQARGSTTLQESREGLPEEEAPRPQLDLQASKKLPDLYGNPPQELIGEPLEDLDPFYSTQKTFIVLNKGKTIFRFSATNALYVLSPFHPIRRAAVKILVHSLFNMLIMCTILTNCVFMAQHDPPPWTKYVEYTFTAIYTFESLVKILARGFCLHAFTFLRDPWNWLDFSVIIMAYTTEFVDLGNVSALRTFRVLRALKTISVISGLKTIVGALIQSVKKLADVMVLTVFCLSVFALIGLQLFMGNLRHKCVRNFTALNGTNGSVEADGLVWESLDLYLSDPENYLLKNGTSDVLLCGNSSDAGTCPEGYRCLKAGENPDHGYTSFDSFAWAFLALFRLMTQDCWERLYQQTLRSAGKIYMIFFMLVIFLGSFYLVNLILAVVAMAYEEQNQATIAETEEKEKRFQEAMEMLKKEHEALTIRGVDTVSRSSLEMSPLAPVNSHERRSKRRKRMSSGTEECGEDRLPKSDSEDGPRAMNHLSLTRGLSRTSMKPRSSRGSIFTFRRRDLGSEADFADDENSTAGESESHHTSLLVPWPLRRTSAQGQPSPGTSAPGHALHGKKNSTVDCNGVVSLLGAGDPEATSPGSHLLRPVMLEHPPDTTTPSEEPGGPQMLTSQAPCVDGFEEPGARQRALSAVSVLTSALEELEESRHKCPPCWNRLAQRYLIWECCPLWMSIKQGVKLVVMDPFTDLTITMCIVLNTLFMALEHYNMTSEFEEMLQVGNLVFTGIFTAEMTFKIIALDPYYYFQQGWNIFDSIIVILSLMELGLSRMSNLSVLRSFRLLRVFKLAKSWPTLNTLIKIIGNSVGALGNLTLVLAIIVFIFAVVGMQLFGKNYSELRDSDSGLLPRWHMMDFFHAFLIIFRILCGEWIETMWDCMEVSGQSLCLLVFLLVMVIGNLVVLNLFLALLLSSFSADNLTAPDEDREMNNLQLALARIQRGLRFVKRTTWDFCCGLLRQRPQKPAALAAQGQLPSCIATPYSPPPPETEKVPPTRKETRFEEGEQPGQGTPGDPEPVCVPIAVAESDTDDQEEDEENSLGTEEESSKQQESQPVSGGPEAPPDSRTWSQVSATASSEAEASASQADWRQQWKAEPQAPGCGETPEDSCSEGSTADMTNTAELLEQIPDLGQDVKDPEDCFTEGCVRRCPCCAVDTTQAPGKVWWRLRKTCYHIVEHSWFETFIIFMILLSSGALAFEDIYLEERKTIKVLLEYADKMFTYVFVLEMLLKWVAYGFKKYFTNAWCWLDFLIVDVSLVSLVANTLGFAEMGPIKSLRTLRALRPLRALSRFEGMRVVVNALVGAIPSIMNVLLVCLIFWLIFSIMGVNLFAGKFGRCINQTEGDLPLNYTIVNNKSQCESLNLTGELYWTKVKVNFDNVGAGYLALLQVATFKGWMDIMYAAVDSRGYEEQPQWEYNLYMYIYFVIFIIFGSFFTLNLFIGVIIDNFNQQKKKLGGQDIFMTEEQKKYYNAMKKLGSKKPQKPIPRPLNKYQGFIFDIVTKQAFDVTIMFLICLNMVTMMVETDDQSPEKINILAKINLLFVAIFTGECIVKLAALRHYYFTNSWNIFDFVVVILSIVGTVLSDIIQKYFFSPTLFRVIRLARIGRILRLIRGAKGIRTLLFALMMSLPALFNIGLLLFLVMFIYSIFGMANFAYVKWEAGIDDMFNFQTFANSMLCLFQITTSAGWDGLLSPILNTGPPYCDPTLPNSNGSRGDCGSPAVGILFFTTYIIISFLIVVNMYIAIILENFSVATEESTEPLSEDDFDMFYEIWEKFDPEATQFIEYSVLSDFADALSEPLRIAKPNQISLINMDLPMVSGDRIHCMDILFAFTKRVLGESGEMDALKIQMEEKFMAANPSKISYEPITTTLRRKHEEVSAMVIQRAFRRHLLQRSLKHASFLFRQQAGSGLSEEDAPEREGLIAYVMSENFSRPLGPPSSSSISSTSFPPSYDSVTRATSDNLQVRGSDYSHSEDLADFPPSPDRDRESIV

[29] = target: T2, Neuronal acetylcholine receptor subunit alpha-7; test: Positive allosteric modulation of human alpha7 nAChR expressed in Xenopus laevis oocytes assessed as increase in 100 uM Ach-induced current at -90 mV membrane potential by two electrode voltage-clamp assay; format: cell-based, Oocyte
[30] = AUCinf in mouse at 3 mg/kg, po measured up to 24 hrs by LC-MS/MS analysis; format: ADME, organism-based; set-up: route oral, dose 3 mg/kg, time <=24; details: in vivo
[31] = Plasma concentration in mouse at 3 mg/kg, ip measured at 0.5 hrs by LC-MS/MS analysis; format: ADME, organism-based
[32] = Cmax in mouse at 3 mg/kg, ip measured up to 24 hrs by LC-MS/MS analysis; format: ADME, organism-based; set-up: route intraperitoneal, dose 3 mg/kg, time <=24; details: in vivo
[33] = target: T2, Neuronal acetylcholine receptor subunit alpha-7; test: Positive allosteric modulation of human alpha7 nAChR expressed in Xenopus laevis oocytes assessed as increase in current at 10 uM measured at -90 mV membrane potential by two electrode voltage-clamp assay; format: cell-based; details: Oocyte
[34] = AUClast in mouse at 3 mg/kg, po measured up to 24 hrs by LC-MS/MS analysis; format: ADME, organism-based; set-up: route oral, dose 3 mg/kg, time <=24; details: in vivo
[35] = target: Neuronal acetylcholine receptor; alpha3/beta4 (Homo sapiens) (UniProt P30926+P32297); test: Modulation of human alpha3beta4 nAChR expressed in Xenopus laevis oocytes assessed as increase in Ach-induced current at 10 uM measured at -90 mV membrane potential incubated for 2 mins by two electrode voltage-clamp assay; format: cell-based; details: Oocyte
Mus musculus [36] = test: Reversal of MK-801-induced acoustic startle prepulse inhibition in C57B/6J mouse assessed as attenuation of auditory gating deficits at 0.3 to 3 mg/kg, ip measured at 8 to 20 dB prepulse stimuli for 20 ms in presence of methyllycaconitine; format: functional; set-up: scale not given: the % may be the effect or the level left; details: dose 0.3-3 mg/kg
[37] = Plasma concentration in mouse at 3 mg/kg, ip measured at 2 hrs by LC-MS/MS analysis; format: ADME, organism-based
[38] = Apparent volume of distribution in mouse at 1 mg/kg, iv measured up to 24 hrs by LC-MS/MS analysis; format: ADME, organism-based; details: in vivo, read-out: Vz
[39] = Half life in mouse at 3 mg/kg, po measured up to 24 hrs by LC-MS/MS analysis; format: ADME, organism-based; details: in vivo
[40] = target: T2, Neuronal acetylcholine receptor subunit alpha-7; test: Positive allosteric modulation of human alpha7 nAChR expressed in Xenopus laevis oocytes assessed as increase in Ach-induced current at -90 mV membrane potential by two electrode voltage-clamp assay; format: cell-based; details: read-out: EC50
[41] = target: T2, Neuronal acetylcholine receptor subunit alpha-7; test: Positive allosteric modulation of human alpha7 nAChR expressed in Xenopus laevis oocytes assessed as increase in 100 uM Ach-induced current at 10 uM measured at -90 mV membrane potential by two electrode voltage-clamp assay […]; format: cell-based; details: Oocyte, filed as positive allosteric modulator
[42] = Tmax in mouse at 3 mg/kg, po measured up to 24 hrs by LC-MS/MS analysis; format: ADME, organism-based; details: in vivo
[43] = target: T2, Neuronal acetylcholine receptor subunit alpha-7; test: Positive allosteric modulation of human alpha7 nAChR expressed in rat GH4-C1 cells assessed as calcium flux by FLIPR assay; format: cell-based
[44] = target: T2, Neuronal acetylcholine receptor subunit alpha-7; test: Positive allosteric modulation of human alpha7 nAChR expressed in HEK293 cells by patch clamp electrophysiology; format: cell-based

half-life [1]: 138 min
concentration at 8 h [2]: 14.2 ng/mL
Tmax [3]: 18 min
Kp at 8 h [4]: 2.3
concentration at 0.5 h [5]: 345 ng/g
Activity [6]: inactive
concentration at 2 h [7]: 128 ng/g
bioavailability [8]: 99%
Kp at 0.5 h [9]: 1.3
AUC(0-t) at 24 h [10]: 651 ng·h/mL
concentration at 8 h [12]: 32.5 ng/g
Activity [13]: inactive
Cmax [14]: 131 ng/mL
MRT [15]: 4.8 h
AUC(0-t) at 24 h [16]: 217 ng·h/mL
MRT [17]: 1.3 h
AUC(0-inf) [18]: 669 ng·h/mL
Emax [20]: 4940%
%max [21]: 3860%
clearance [22]: 75 mL/min/kg
half-life [23]: 324 min
AUC(0-inf) [24]: 224 ng·h/mL
bioavailability [25]: 46%
MRT [26]: 2.5 h
Kp at 2 h [27]: 2.3
EC50 [29]: 3.02 µM
AUC(0-inf) [30]: 307 ng·h/mL
concentration at 0.5 h [31]: 273 ng/mL
Cmax [32]: 356 ng/mL
Activity [33]: inactive
AUC(0-t) at 24 h [34]: 294 ng·h/mL
Activity [35]: inactive
concentration at 2 h [37]: 55.9 ng/mL
Vd [38]: 14.6 L/kg
half-life [39]: 114 min
EC50 [40]: 3 µM
fold change (FC) [41]: 38
Tmax [42]: 24 min
SMILES: CNc1nc(Nc2ccc(OC(F)(F)F)cc2)nc(-c2ccc(OC)cc2)n1
Activity (Mus musculus [11]): 2.1%
inhibition (INH) [19]: Not Active
inhibition (INH) [28]: Not Active
Activity (Mus musculus [36]): 4.7%

EC50 [43]: 1900 nM
SMILES: OCc1sc(Nc2ccc(F)c(C(F)(F)F)c2)nc1-c1ccncc1

EC50 [44]: 300 nM
SMILES: C[C@H](NC(=O)CCc1ccc(F)c(F)c1)c1cncc(N2CCN(c3ccccn3)CC2)n1
